Results on 25 molecules are retold here after patent US20130102595A1 (Curis, Inc., priority 2011, published 2013).

pIC50: −log10 of the molar value.

Data set [1] deals with T1, PI3Kα (p110α/p85α) (Homo sapiens, UniProt P42336).
T1 construct: GST (N); made in house; host or cells: Baculovirus-infected Sf9 cells
The data set is described as follows: PI3Kα ADP-Glo assay. The data set is classed as biochemical. The settings on record: 20 μM PIP2, 10 μM ATP, 30 minutes. The essentials:
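Luminescent ADP-Glo detection, after depletion of residual ATP, quantified ADP made by PI3Kα phosphorylating 20 μM PIP2 at 10 μM ATP. The kinase step ran 30 min at room temperature in HEPES pH 7.4 with MgCl2, DTT and orthovanadate, using baculovirus/Sf9-expressed full-length p110α/p85α complex.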
On the technique in general: In ADP-Glo the light output rises with the ADP produced.

In data set [2] the test system is HDACs (HeLa cell nuclear extracts). The data set is described as follows: HDAC enzymatic activity, Biomol Color de Lys system. Type of data set: biochemical. The settings on record: 1 hour, 25° C. The procedure, abridged: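 IC50 from sigmoidal fit of developer-terminated fluorescence (ex 350-380/em 440-460 nm). Reaction: 1 h at room temperature (25 °C), HeLa nuclear extract as HDAC source, artificial substrate, buffer of 50 mM Tris/Cl pH 8.0 with 137 mM NaCl, 2.7 mM KCl and 1 mM MgCl2.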

T1 sequence (P42336 whole entry): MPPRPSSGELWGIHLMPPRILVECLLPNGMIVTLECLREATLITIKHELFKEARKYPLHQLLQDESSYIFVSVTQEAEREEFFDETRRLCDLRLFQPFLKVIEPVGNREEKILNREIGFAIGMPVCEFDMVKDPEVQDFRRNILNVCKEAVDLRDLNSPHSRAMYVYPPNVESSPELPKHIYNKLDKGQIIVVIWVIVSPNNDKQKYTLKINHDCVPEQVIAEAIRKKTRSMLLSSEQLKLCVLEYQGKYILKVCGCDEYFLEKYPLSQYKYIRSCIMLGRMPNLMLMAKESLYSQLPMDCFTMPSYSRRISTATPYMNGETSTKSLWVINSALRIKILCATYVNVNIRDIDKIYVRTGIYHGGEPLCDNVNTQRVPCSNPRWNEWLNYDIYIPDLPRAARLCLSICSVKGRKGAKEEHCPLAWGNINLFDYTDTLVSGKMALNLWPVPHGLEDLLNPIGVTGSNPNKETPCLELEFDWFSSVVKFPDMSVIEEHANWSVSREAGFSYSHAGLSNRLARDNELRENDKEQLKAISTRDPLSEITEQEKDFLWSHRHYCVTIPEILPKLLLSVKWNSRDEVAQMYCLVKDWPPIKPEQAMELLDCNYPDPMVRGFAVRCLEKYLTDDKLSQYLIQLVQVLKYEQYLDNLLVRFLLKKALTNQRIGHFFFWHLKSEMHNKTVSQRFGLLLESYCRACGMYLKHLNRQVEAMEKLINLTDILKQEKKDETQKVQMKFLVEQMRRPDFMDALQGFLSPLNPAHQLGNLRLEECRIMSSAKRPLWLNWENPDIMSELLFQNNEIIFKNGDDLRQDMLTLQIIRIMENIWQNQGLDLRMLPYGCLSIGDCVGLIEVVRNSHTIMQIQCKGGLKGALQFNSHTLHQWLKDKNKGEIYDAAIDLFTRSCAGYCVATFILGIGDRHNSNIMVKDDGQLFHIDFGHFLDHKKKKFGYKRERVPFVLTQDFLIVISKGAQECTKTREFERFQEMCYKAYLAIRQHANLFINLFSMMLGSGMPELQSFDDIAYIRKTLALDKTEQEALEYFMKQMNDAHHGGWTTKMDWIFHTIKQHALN
T1 sequence (P27986 whole entry partner): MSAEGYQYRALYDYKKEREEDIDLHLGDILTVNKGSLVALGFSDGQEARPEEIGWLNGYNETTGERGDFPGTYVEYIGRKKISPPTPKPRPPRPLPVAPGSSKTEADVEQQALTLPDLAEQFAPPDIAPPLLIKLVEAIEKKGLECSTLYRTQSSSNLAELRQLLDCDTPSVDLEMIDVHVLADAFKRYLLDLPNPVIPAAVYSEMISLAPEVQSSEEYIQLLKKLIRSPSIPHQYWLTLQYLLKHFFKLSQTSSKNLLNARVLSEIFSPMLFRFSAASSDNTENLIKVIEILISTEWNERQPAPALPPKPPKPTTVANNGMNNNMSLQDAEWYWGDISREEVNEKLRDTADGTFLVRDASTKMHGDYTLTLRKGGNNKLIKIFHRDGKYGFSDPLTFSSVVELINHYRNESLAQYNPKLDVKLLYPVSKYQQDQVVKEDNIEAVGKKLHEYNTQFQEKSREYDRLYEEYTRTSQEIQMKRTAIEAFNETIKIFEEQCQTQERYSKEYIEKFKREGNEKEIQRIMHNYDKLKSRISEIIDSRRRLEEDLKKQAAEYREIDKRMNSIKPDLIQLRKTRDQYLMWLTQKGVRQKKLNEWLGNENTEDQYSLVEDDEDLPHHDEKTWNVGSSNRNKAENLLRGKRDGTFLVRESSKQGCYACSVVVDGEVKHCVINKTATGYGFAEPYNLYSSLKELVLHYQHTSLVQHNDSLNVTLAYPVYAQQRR

The term pIC50 denotes −log10 of the IC50, conventionally taken in molar units. Higher therefore signals a small IC50. The term melting point denotes the temperature of the solid-liquid transition. `CN(Cc1cc2nc(-c3cc[nH]c3)nc(N3CCOCC3)c2s1)c1ncc(C(=O)NO)cn1` [Compound 197, N-hydroxy-2-(methyl((4-morpholino-2-(1H-pyrrol-3-yl)thieno[3,2-d]pyrimidin-6-yl)methyl)amino)pyrimidine-5-carboxamide]: the melting point lay in the range of 175 to 189 °C. The same molecule had a pIC50 in data set [1] above 7.00. For the same molecule, the pIC50 in data set [2] is above 7.00.

The molecule `O=C(/C=C/c1ccc(NCc2cc3nc(-c4cccc5[nH]ncc45)nc(N4CCOCC4)c3s2)cc1)NO` [Compound 80, (E)-3-(4-((2-(1H-indazol-4-yl)-4-morpholinothieno[3,2-d]pyrimidin-6-yl)methylamino)phenyl)-N-hydroxyacrylamide] returned a melting point above 300 °C. Also, the pIC50 in data set [1] was above 7.00. In data set [2], this molecule showed a pIC50 of 6.00 to 7.00.

With `Nc1ncc(-c2nc(N3CCOCC3)c3sc(NCCCCCC(=O)NO)cc3n2)cn1` [Compound 232, 6-[2-(2-Amino-pyrimidin-5-yl)-4-morpholin-4-yl-thieno[3,2-d]pyrimidin-6-ylamino]-hexanoic acid hydroxyamide], the melting point fell in the range of 220 to 225 °C. Further, the pIC50 in data set [1] was above 7.00. Moreover, the negative logarithm of the IC50 (pIC50) in data set [2] is above 7.00.

With `COc1ncc(-c2nc(N3CCOCC3)c3sc(C(C)(C)Nc4ncc(C(=O)NO)cn4)cc3n2)cn1` [Compound 263, N-Hydroxy-2-(2-(2-(2-methoxypyrimidin-5-yl)-4-morpholinothieno[3,2-d]pyrimidin-6-yl)propan-2-ylamino)pyrimidine-5-carboxamide], the melting point lay within 202 to 207 °C. The molecule also gave a pIC50 in data set [1] above 7.00. In addition, the pIC50 in data set [2] is above 7.00.

In turn, `COc1ccc(-c2nc(N3CCOCC3)c3sc(NS(=O)(=O)c4ccc(/C=C/C(=O)NO)cc4)cc3n2)cn1` [Compound 222, N-Hydroxy-3-{4-[2-(6-methoxy-pyridin-3-yl)-4-morpholin-4-yl-thieno[3,2-d]pyrimidin-6-ylsulfamoyl]-phenyl}-acrylamide] displayed a melting point above 300 °C. The molecule further showed a pIC50 in data set [1] of 6.00 to 7.00. The molecule further had a pIC50 in data set [2] above 7.00.

`CN(Cc1cc2nc(-c3ccc(F)cc3)nc(N3CCOCC3)c2s1)c1ncc(C(=O)NO)cn1` [Compound 200, 2-(((2-(4-fluorophenyl)-4-morpholinothieno[3,2-d]pyrimidin-6-yl)methyl)(methyl)amino)-N-hydroxypyrimidine-5-carboxamide] yielded a melting point of 168 to 170 °C. In addition, the pIC50 in data set [1] is below 5.00. Moreover, the pIC50 in data set [2] was above 7.00.

Take `CN(C)CCOc1ccc(-c2nc(N3CCOCC3)c3sc(CN(C)c4ncc(C(=O)NO)cn4)cc3n2)cn1` [Compound 257, 2-(((2-(6-(2-(Dimethylamino)ethoxy)pyridin-3-yl)-4-morpholinothieno[3,2-d]pyrimidin-6-yl)methyl)(methyl)amino)-N-hydroxypyrimidine-5-carboxamide]: the melting point lay in the range of 140 to 143 °C. This molecule gave a pIC50 in data set [1] below 5.00. This molecule had a pIC50 in data set [2] above 7.00.

Molecule `CN(Cc1cc2nc(-c3ccccc3)nc(N3CCOCC3)c2s1)c1ncc(C(=O)NO)cn1` [Compound 129, N-hydroxy-2-(methyl((4-morpholino-2-phenylthieno[3,2-d]pyrimidin-6-yl)methyl)amino)pyrimidine-5-carboxamide] showed a melting point of 199 to 200 °C. In addition, the pIC50 in data set [1] is below 5.00. Further, the pIC50 in data set [2] is above 7.00.

`CCN(CC)c1ccc(-c2nc(N3CCOCC3)c3sc(CN(C)c4ncc(C(=O)NO)cn4)cc3n2)cc1` [Compound 154, 2-(((2-(4-(Diethylamino)phenyl)-4-morpholinothieno[3,2-d]pyrimidin-6-yl)methyl)(methyl)amino)-N-hydroxypyrimidine-5-carboxamide] yielded a melting point of 192 to 196 °C. Moreover, the pIC50 in data set [1] was below 5.00. Moreover, the negative-log IC50 (pIC50) in data set [2] is above 7.00.

`CCOc1ccc(-c2nc(N3CCOCC3)c3sc(CN(C)c4ncc(C(=O)NO)cn4)cc3n2)cn1` [Compound 255, 2-(((2-(6-ethoxypyridin-3-yl)-4-morpholinothieno[3,2-d]pyrimidin-6-yl)methyl)(methyl)amino)-N-hydroxypyrimidine-5-carboxamide] had a melting point of 162 to 165 °C. This molecule showed a pIC50 in data set [1] above 7.00. The molecule also had a pIC50 in data set [2] above 7.00.

For `CN(Cc1cc2nc(-c3ccc(OCCN)nc3)nc(N3CCOCC3)c2s1)c1ncc(C(=O)NO)cn1` [Compound 259, 2-(((2-(6-(2-Aminoethoxy)pyridin-3-yl)-4-morpholinothieno[3,2-d]pyrimidin-6-yl)methyl)(methyl)amino)-N-hydroxypyrimidine-5-carboxamide], the melting point was in the range of 110 to 115 °C. This molecule had a pIC50 in data set [1] below 5.00. In data set [2], this molecule gave a pIC50 above 7.00.

The molecule `CN(Cc1cc2nc(-c3cccc4c3CCN4)nc(N3CCOCC3)c2s1)c1ncc(C(=O)NO)cn1` [Compound 177, N-hydroxy-2-(((2-(indolin-4-yl)-4-morpholinothieno[3,2-d]pyrimidin-6-yl)methyl)(methyl)amino)pyrimidine-5-carboxamide] returned a melting point of 146 to 156 °C. For the same molecule, the pIC50 in data set [1] was below 5.00. In addition, in data set [2], the pIC50 was above 7.00.

As for `CN(Cc1cc2nc(-c3ccc(O)cc3)nc(N3CCOCC3)c2s1)c1ncc(C(=O)NO)cn1` [Compound 133, N-hydroxy-2-(((2-(4-hydroxyphenyl)-4-morpholinothieno[3,2-d]pyrimidin-6-yl)methyl)(methyl)amino)pyrimidine-5-carboxamide], the melting point lay within 185 to 195 °C. Moreover, the pIC50 in data set [1] is 6.00 to 7.00. Further, the pIC50 in data set [2] was above 7.00.

The molecule `CN(Cc1cc2nc(-c3cccc(N)c3)nc(N3CCOCC3)c2s1)c1ncc(C(=O)NO)cn1` [Compound 134, 2-(((2-(3-aminophenyl)-4-morpholinothieno[3,2-d]pyrimidin-6-yl)methyl)(methyl)amino)-N-hydroxypyrimidine-5-carboxamide] came in with a melting point of 179 to 182 °C. Moreover, the pIC50 in data set [1] was 6.00 to 7.00. The negative-log IC50 (pIC50) in data set [2] was above 7.00.

`O=C(CCCCCCNCc1cc2nc(-c3cccc4[nH]ncc34)nc(N3CCOCC3)c2s1)NO` [Compound 44, 7-((2-(1H-indazol-4-yl)-4-morpholinothieno[3,2-d]pyrimidin-6-yl)methylamino)-N-hydroxyheptanamide] came in with a melting point of 188 to 190 °C. In addition, the pIC50 in data set [1] was above 7.00. For the same molecule, in data set [2], the negative logarithm of the IC50 (pIC50) was 6.00 to 7.00.

Molecule `CC(C)(C)CN(Cc1cc2nc(-c3cccc4[nH]ncc34)nc(N3CCOCC3)c2s1)c1ncc(C(=O)NO)cn1` [Compound 83, 2-(((2-(1H-indazol-4-yl)-4-morpholinothieno[3,2-d]pyrimidin-6-yl)methyl)(neopentyl)amino)-N-hydroxypyrimidine-5-carboxamide] came in with a melting point of 240 to 242 °C. This molecule also had a negative logarithm of the IC50 (pIC50) in data set [1] of 6.00 to 7.00. This molecule also gave a negative logarithm of the IC50 (pIC50) in data set [2] of 5.00 to 6.00.

`CN(Cc1cc2nc(-c3ccc(C(N)=O)cc3)nc(N3CCOCC3)c2s1)c1ncc(C(=O)NO)cn1` [Compound 143, 2-(((2-(4-carbamoylphenyl)-4-morpholinothieno[3,2-d]pyrimidin-6-yl)methyl)(methyl)amino)-N-hydroxypyrimidine-5-carboxamide] yielded a melting point of 200 to 202 °C. The same molecule had a pIC50 in data set [1] of 6.00 to 7.00. The pIC50 in data set [2] is above 7.00.

`CCCN(Cc1cc2nc(-c3cccc4[nH]ncc34)nc(N3CCOCC3)c2s1)c1ncc(C(=O)NO)cn1` [Compound 84, 2-(((2-(1H-indazol-4-yl)-4-morpholinothieno[3,2-d]pyrimidin-6-yl)methyl)(propyl)amino)-N-hydroxypyrimidine-5-carboxamide] yielded a melting point of 224 to 226 °C. The same molecule had a pIC50 in data set [1] above 7.00. Besides, the pIC50 in data set [2] is above 7.00.

As to `CS(=O)(=O)N1CCN(Cc2cc3nc(-c4cccc5c4cnn5CCCCC(=O)NO)nc(N4CCOCC4)c3s2)CC1` [Compound 3, N-hydroxy-5-(4-(6-((4-(methylsulfonyl)piperazin-1-yl)methyl)-4-morpholinothieno[3,2-d]pyrimidin-2-yl)-1H-indazol-1-yl)pentanamide], the melting point was in the range of 139 to 143 °C.

On to `O=C(CCCCN1CCN(Cc2cc3nc(-c4cccc5[nH]ncc45)nc(N4CCOCC4)c3s2)CC1)NO` [Compound 11, 5-(4-((2-(1H-indazol-4-yl)-4-morpholinothieno[3,2-d]pyrimidin-6-yl)methyl)piperazin-1-yl)-N-hydroxypentanamide], for which the melting point lay in the range of 125 to 127 °C. The pIC50 in data set [2] was 5.00 to 6.00.

For `Nc1ccc(-c2nc(N3CCOCC3)c3sc(CN(CCO)c4ncc(C(=O)NO)cn4)cc3n2)cn1` [Compound 235], the pIC50 in data set [1] and in data set [2] was above 7.00 in each case.

For the molecule `CN(Cc1cc2nc(-c3cccc4[nH]ncc34)nc(NCCO)c2s1)c1ncc(C(=O)NO)cn1` [Compound 161], the pIC50 in data set [1] is 6.00 to 7.00; in data set [2], above 7.00.

`CN(c1ncc(C(=O)NO)cn1)c1cc2nc(-c3ccc(N)cc3)nc(N3CCOCC3)c2s1` [Compound 272]: the pIC50 in data set [1] and in data set [2] was above 7.00 each time.

With `CN(Cc1cc2cc(-c3cccc4[nH]ncc34)nc(N3CCOCC3)c2s1)c1ncc(C(=O)NO)cn1` [Compound 74], the pIC50 in data set [1] was 6.00 to 7.00; in data set [2], above 7.00.

Regarding `CN(Cc1cc2nc(-c3cccc(C(=O)OC(C)(C)C)c3)nc(N3CCOCC3)c2s1)c1ncc(C(=O)NO)cn1` [Compound 304], the pIC50 in data set [1] was 5.00 to 6.00; in data set [2] it was above 7.00.
